Source: PubChem BioAssay (NCI)
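At the GI50, growth is halved. At the TGI there is no net growth.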

How the values were obtained:
Test in all cases: NCI tumour cell line growth inhibition, 384-well format
[1] = system: NCI/ADR-RES ovarian
[2] = system: MCF7 breast
[3] = system: OVCAR-4 ovarian
[4] = system: 786-0 renal
[5] = system: SNB-19 CNS
[6] = system: UACC-62 melanoma
[7] = system: T-47D breast
[8] = system: COLO 205 colon
[9] = system: HT29 colon
[10] = system: HOP-62 NSCLC
[11] = system: SF-539 CNS
[12] = system: OVCAR-8 ovarian
[13] = system: SN12C renal
[14] = system: SK-OV-3 ovarian
[15] = system: SR leukemia
[16] = system: LOX IMVI melanoma
[17] = system: OVCAR-3 ovarian
[18] = system: NCI-H226 lung
[19] = system: NCI-H460 NSCLC
[20] = system: MDA-MB-231 breast
[21] = system: MDA-MB-468 breast
[22] = system: MDA-MB-435 melanoma
[23] = system: RPMI-8226 leukemia
[24] = system: MOLT-4 leukemia
[25] = system: K-562 leukemia
[26] = system: HOP-92 NSCLC
[27] = system: IGROV1 ovarian
[28] = system: DU-145 prostate
[29] = system: CAKI-1 renal
[30] = system: HCT-15 colon
[31] = system: A498 renal
[32] = system: NCI-H322M lung
[33] = system: ACHN renal
[34] = system: KM12 colon
[35] = system: UO-31 renal
[36] = system: RXF 393 renal
[37] = system: PC-3 prostate
[38] = system: UACC-257 melanoma
[39] = system: MALME-3M melanoma
[40] = system: SK-MEL-2 melanoma
[41] = system: SK-MEL-5 melanoma
[42] = system: NCI-H23 lung
[43] = system: SF-268 CNS
[44] = system: HCC-2998 colon
[45] = system: NCI-H522 lung
[46] = system: U251 glioblastoma
[47] = system: A549 NSCLC
[48] = system: CCRF-CEM leukemia
[49] = system: SF-295 CNS
[50] = system: TK-10 renal
[51] = system: SK-MEL-28 melanoma
[52] = system: OVCAR-5 ovarian
[53] = system: BT-549 breast
[54] = system: M14 melanoma
[55] = system: HCT-116 colon
[56] = system: HL-60(TB) leukemia
[57] = system: SW-620 colon

**Q.** Which results are given for `COc1ccc(-c2ccc3ncc4c(c3c2)n(-c2ccc(N3CCNCC3)c(C(F)(F)F)c2)c(=O)n4C)cn1`?
**A.** GI50 [1]: 107 nM; TGI [1]: 226 nM; GI50 [2]: < 10 nM; TGI [2]: 120 nM; GI50 [3]: < 10 nM; TGI [3]: < 10 nM; GI50 [4]: < 10 nM; TGI [4]: 151 nM; GI50 [5]: < 10 nM; TGI [5]: 192 nM; GI50 [6]: < 10 nM; TGI [6]: 28.3 nM; GI50 [7]: < 10 nM; TGI [7]: < 10 nM; GI50 [8]: < 10 nM; TGI [8]: 21.7 nM; GI50 [9]: < 10 nM; TGI [9]: 135 nM; GI50 [10]: < 10 nM; TGI [10]: 21.6 nM; GI50 [11]: < 10 nM; TGI [11]: 26.3 nM; GI50 [12]: < 10 nM; TGI [12]: 124 nM; GI50 [13]: < 10 nM; TGI [13]: 154 nM; GI50 [14]: < 10 nM; TGI [14]: < 10 nM; GI50 [15]: < 10 nM; TGI [15]: < 10 nM; GI50 [16]: < 10 nM; TGI [16]: 49 nM; GI50 [17]: < 10 nM; TGI [17]: 96 nM; GI50 [18]: < 10 nM; TGI [18]: 32.5 nM; GI50 [19]: < 10 nM; TGI [19]: 83.3 nM; GI50 [20]: < 10 nM; TGI [20]: 158 nM; GI50 [21]: < 10 nM; TGI [21]: < 10 nM; GI50 [22]: < 10 nM; TGI [22]: 34 nM; GI50 [23]: < 10 nM; TGI [23]: < 10 nM; GI50 [24]: < 10 nM; TGI [24]: < 10 nM; GI50 [25]: < 10 nM; TGI [25]: 124 nM; GI50 [26]: < 10 nM; TGI [26]: 19.1 nM; GI50 [27]: < 10 nM; TGI [27]: < 10 nM; GI50 [28]: < 10 nM; TGI [28]: 128 nM; GI50 [29]: < 10 nM; TGI [29]: 14.9 nM; GI50 [30]: < 10 nM; TGI [30]: 129 nM; GI50 [31]: < 10 nM; TGI [31]: < 10 nM; GI50 [32]: < 10 nM; TGI [32]: 109 nM; GI50 [33]: < 10 nM; TGI [33]: 43.8 nM; GI50 [34]: < 10 nM; TGI [34]: 141 nM; GI50 [35]: < 10 nM; TGI [35]: 16.7 nM; GI50 [36]: < 10 nM; TGI [36]: 19.3 nM; GI50 [37]: < 10 nM; TGI [37]: 106 nM; GI50 [38]: 11.7 nM; TGI [38]: 51.5 nM; GI50 [39]: < 10 nM; TGI [39]: < 10 nM; GI50 [40]: < 10 nM; TGI [40]: 36.5 nM; GI50 [41]: < 10 nM; TGI [41]: 13.8 nM; GI50 [42]: 11.4 nM; TGI [42]: 82 nM; GI50 [43]: < 10 nM; TGI [43]: 131 nM; GI50 [44]: < 10 nM; TGI [44]: 103 nM; GI50 [45]: < 10 nM; TGI [45]: 50.9 nM; GI50 [46]: < 10 nM; TGI [46]: 134 nM; GI50 [47]: < 10 nM; TGI [47]: 25.4 nM; GI50 [48]: < 10 nM; TGI [48]: 13.6 nM; GI50 [49]: < 10 nM; TGI [49]: 10.5 nM; GI50 [50]: < 10 nM; TGI [50]: 50.6 nM; GI50 [51]: < 10 nM; TGI [51]: 42 nM; GI50 [52]: < 10 nM; TGI [52]: 105 nM; GI50 [53]: < 10 nM; TGI [53]: 17.2 nM; GI50 [54]: < 10 nM; TGI [54]: 64.9 nM; GI50 [55]: < 10 nM; TGI [55]: 130 nM; GI50 [56]: 15.5 nM; TGI [56]: 111 nM; GI50 [57]: < 10 nM; TGI [57]: 122 nM
